Measurements published in patent publication US20040176431A1, “Antiproliferative 2-(sulfo-phenyl)-aminothiazole derivatives and pharmaceutical compositions, and methods for their use” (Pfizer, Inc., priority 2003, published 2004).

Target: T1, CDK4/cyclin D3 (Homo sapiens, UniProt P11802)
T1 construct: made in house; host or cells: insect cells (baculovirus co-infection)
Experiment: Inhibition of CDK4/Cyclin D retinoblastoma kinase activity
Format: biochemical
Conditions: for inhibition at 0.1 µM: read-out: % Inhib CDK4/D @ 0.1 μM; for inhibition at 1 µM: read-out: % Inhib CDK4/D @ 1 μM; for inhibition at 0.03 µM: read-out: % Inhib CDK4/D @ 0.03
Experimental: Cyclin-dependent kinase activity was measured by quantifying the enzyme-catalyzed, time-dependent incorporation of radioactive phosphate from [^32P]ATP or [^33P]ATP into a protein substrate. Unless noted otherwise, assays were performed in 96-well plates in a total volume of 50 μL, in the presence of 10 mM HEPES (N-[2-hydroxyethyl]piperazine-N′-[2-ethanesulfonic acid]) (pH 7.4), 10 mM MgCl2, 25 μM adenosine triphosphate (ATP), 1 mg/mL ovalbumin, 5 μg/mL leupeptin, 1 mM dithiothreitol, 10 mM β-glycerophosphate, 0.1 mM sodium vanadate, 1 mM sodium fluoride, 2.5 mM ethylene glycol-bis(β-aminoethyl ether)-N,N,N′N′-tetraacetic acid (EGTA), 2% (v/v) dimethylsulfoxide, and 0.03-0.4 μCi [^32/33P]ATP per reaction. Reactions were initiated with enzyme, incubated at 30° C., and terminated after 20 minutes by the addition of ethylenediaminetetraacetic acid (EDTA) to 250 mM. The phosphorylated substrate was then captured on a nitrocellulose or phosphocellulose membrane using a 96-well filtration manifold, and unincorporated radioactivity was removed by repeated washing with 0.85% phosphoric acid. Radioactivity was quantified by exposing the dried membranes to a phosphorimager.
Inhibition was measured relative to control wells that contained all reaction components including 2% (v/v) DMSO but no compound, after subtraction of background radioactivity measured in the absence of enzyme. Apparent Ki values of discrete compounds were measured by assaying enzyme activity in the presence of different inhibitor compound concentrations and subtracting the background radioactivity measured in the absence of enzyme. The kinetic parameters (kcat, Km for ATP) were measured for each enzyme under the usual assay conditions by determining the dependence of initial rates on ATP concentration. Inhibition data were fit to an equation for competitive inhibition using Kaleidagraph (Synergy Software), or were fit to an equation for competitive tight-binding inhibition using the software KineTic (BioKin, Ltd.).
A complex of human CDK4 and genetically truncated (1-264) cyclin D3 was purified using traditional biochemical chromatographic techniques from insect cells that had been co-infected with the corresponding baculovirus expression vectors (see e.g., Meijer and Kim, “Chemical Inhibitors of Cyclin-Dependent Kinases,” Methods in Enzymol., 283, 113-128 (1997)). The enzyme complex (5 nM) was assayed with 0.3-0.5 μg of purified recombinant retinoblastoma protein fragment (Rb) as a substrate. The engineered Rb fragment (residues 386-928 of the native retinoblastoma protein; 62.3 kDa) contains the majority of the phosphorylation sites found in the native 106-kDa protein, as well as a tag of six histidine residues for ease of purification. Phosphorylated Rb substrate was captured by microfiltration on a nitrocellulose membrane and quantified using a phosphorimager as described above. For measurement of tight-binding inhibitors, the assay duration was extended to 60 minutes, during which the time-dependence of product formation was linear and initial rate conditions were met.

[1] = test compound at 1 μM (head line shifted: 'mM' printed beside 'Structure')
[2] = test compound at 0.03 (unit cell empty, head line shifted; μM)

T1 sequence (P11802 whole entry): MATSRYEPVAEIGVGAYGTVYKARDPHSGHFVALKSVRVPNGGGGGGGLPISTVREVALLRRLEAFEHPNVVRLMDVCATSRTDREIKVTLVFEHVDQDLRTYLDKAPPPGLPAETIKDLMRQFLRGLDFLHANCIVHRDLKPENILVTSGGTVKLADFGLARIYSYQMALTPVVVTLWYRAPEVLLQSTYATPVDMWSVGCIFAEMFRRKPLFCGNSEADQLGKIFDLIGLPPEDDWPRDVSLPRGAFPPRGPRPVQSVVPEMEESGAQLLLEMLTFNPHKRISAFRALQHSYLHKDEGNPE
T1 sequence (P30281 1-264 partner limits assumed): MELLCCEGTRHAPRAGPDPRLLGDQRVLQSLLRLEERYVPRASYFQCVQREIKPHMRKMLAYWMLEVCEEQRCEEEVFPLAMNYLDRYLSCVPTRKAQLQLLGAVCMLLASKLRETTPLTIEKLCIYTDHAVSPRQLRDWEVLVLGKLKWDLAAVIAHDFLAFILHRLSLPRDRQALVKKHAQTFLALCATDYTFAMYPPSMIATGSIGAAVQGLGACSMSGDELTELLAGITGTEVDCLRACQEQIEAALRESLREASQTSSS

Compound | inhibition at 0.1 µM (test compound at 0.1 μM) [%] | inhibition at 1 µM [1] [%] | inhibition at 0.03 µM [2] [%] | % Inhib CDK4/D @ 0.1 μM (test compound at 0.1 μM, 0.1 µM) [%] | % Inhib CDK4/D @ 1 μM (test compound at 1 μM (head line shifted: 'mM' printed beside 'Structure'), 1 µM) [%] | % Inhib CDK4/D @ 0.03 [2] [%]
CCN(CC)C(=O)CSc1ccc(Nc2nc(N)c(C(=O)c3c(Cl)cccc3Cl)s2)cc1 [DD(1)] | -19 | 46.9 | -34 |  |  | 
Cc1noc(C)c1CSc1ccc(Nc2nc(N)c(C(=O)c3c(Cl)cccc3Cl)s2)cc1 [DD(2)] | 19 | 74 | 37 |  |  | 
CC(CSc1ccc(Nc2nc(N)c(C(=O)c3c(Cl)cccc3Cl)s2)cc1)CN(C)C (stereo not drawn) [DD(3)] | 0.2 | 43.6 | 8.1 |  |  | 
COC(=O)/C=C/CSc1ccc(Nc2nc(N)c(C(=O)c3c(Cl)cccc3Cl)s2)cc1 [DD(4)] | 11 | 49.1 | 5.4 |  |  | 
Nc1nc(Nc2ccc(SCCCO)cc2)sc1C(=O)c1c(Cl)cccc1Cl [DD(5)] | 40 | 85.2 | 21 |  |  | 
C=CCCSc1ccc(Nc2nc(N)c(C(=O)c3c(Cl)cccc3Cl)s2)cc1 [DD(6)] | 20 | 48 | 22 |  |  | 
Nc1nc(Nc2ccc(SCCN3CCCC3)cc2)sc1C(=O)c1c(Cl)cccc1Cl [DD(7)] | 31 | 55 | 11 |  |  | 
Nc1nc(Nc2ccc(SCc3ncon3)cc2)sc1C(=O)c1c(Cl)cccc1Cl [DD(8)] | 43 | 82.1 | 16 |  |  | 
Nc1nc(Nc2ccc(SCC3CNC(=O)O3)cc2)sc1C(=O)c1c(Cl)cccc1Cl (stereo not drawn) [DD(9)] | -14 | 40.3 | -28 |  |  | 
CN(C)CCCSc1ccc(Nc2nc(N)c(C(=O)c3c(Cl)cccc3Cl)s2)cc1 [DD(10)] | 6.6 | 54.5 | 2.6 |  |  | 
Nc1nc(Nc2ccc(SCCN3CCCCC3)cc2)sc1C(=O)c1c(Cl)cccc1Cl [DD(11)] | 28 | 78.1 | 4.2 |  |  | 
Nc1nc(Nc2ccc(SCC3CO3)cc2)sc1C(=O)c1c(Cl)cccc1Cl (stereo not drawn) [DD(12)] | 19 | 72 | 3.9 |  |  | 
CC(C)CCSc1ccc(Nc2nc(N)c(C(=O)c3c(Cl)cccc3Cl)s2)cc1 [DD(13)] | 4.7 | 35.3 | 0.6 |  |  | 
COCCSc1ccc(Nc2nc(N)c(C(=O)c3c(Cl)cccc3Cl)s2)cc1 [DD(14)] | 41 | 80 | 18 |  |  | 
Nc1nc(Nc2ccc(SCC(=O)Nc3ccccc3)cc2)sc1C(=O)c1c(Cl)cccc1Cl [DD(15)] | 53 | 82 | 38 |  |  | 
Nc1nc(Nc2ccc(SCC3CC3)cc2)sc1C(=O)c1c(Cl)cccc1Cl [DD(16)] | -7 | 56.2 | -9.4 |  |  | 
COc1cccc(CSc2ccc(Nc3nc(N)c(C(=O)c4c(Cl)cccc4Cl)s3)cc2)c1 [DD(17)] | -3 | 28.3 | -9.5 |  |  | 
Nc1nc(Nc2ccc(SCC3CCCO3)cc2)sc1C(=O)c1c(Cl)cccc1Cl (stereo not drawn) [DD(18)] | 9.9 | 70.6 | 10 |  |  | 
CN1CCCC1CCSc1ccc(Nc2nc(N)c(C(=O)c3c(Cl)cccc3Cl)s2)cc1 (stereo not drawn) [DD(19)] | 19 | 82.9 | -3 |  |  | 
CC1(CSc2ccc(Nc3nc(N)c(C(=O)c4c(Cl)cccc4Cl)s3)cc2)CO1 (stereo not drawn) [DD(20)] | 6.8 | 68.2 | 4.2 |  |  | 
NC(=O)CSc1ccc(Nc2nc(N)c(C(=O)c3c(Cl)cccc3Cl)s2)cc1 [DD(21)] | 67 | 85.5 | 50 |  |  | 
CCOC(=O)CCSc1ccc(Nc2nc(N)c(C(=O)c3c(Cl)cccc3Cl)s2)cc1 [DD(22)] | 9.1 | 56.2 | 8.1 |  |  | 

Compound | inhibition at 0.1 µM (test compound at 0.1 μM) [%] | inhibition at 1 µM [1] [%] | inhibition at 0.03 µM [2] [%] | % Inhib CDK4/D @ 0.1 μM (test compound at 0.1 μM, 0.1 µM) [%] | % Inhib CDK4/D @ 1 μM (test compound at 1 μM (head line shifted: 'mM' printed beside 'Structure'), 1 µM) [%] | % Inhib CDK4/D @ 0.03 [2] [%]
CC(C)OC(=O)CSc1ccc(Nc2nc(N)c(C(=O)c3c(Cl)cccc3Cl)s2)cc1 [DD(23)] | 37 | 72.1 | 19 |  |  | 
CC(C)=CCSc1ccc(Nc2nc(N)c(C(=O)c3c(Cl)cccc3Cl)s2)cc1 [DD(24)] | -3 | 42.5 | -17 |  |  | 
CCCSc1ccc(Nc2nc(N)c(C(=O)c3c(Cl)cccc3Cl)s2)cc1 [DD(25)] | 0.4 | 65.5 | -10 |  |  | 
COC(=O)CSc1ccc(Nc2nc(N)c(C(=O)c3c(Cl)cccc3Cl)s2)cc1 [DD(26)] | 65 | 87.5 | 9 |  |  | 
CN1CCCC(CSc2ccc(Nc3nc(N)c(C(=O)c4c(Cl)cccc4Cl)s3)cc2)C1 (stereo not drawn) [DD(27)] | 10 | 58.7 | -2.6 |  |  | 
NC(=O)CCSc1ccc(Nc2nc(N)c(C(=O)c3c(Cl)cccc3Cl)s2)cc1 [DD(28)] | 51 | 86.8 | 19 |  |  | 
NC(=O)CCSc1ccc(Nc2nc(N)c(C(=O)c3c(Cl)cccc3Cl)s2)cc1 [DD(29)] |  |  |  | 50 | 87.2 | 24
CC(C)CCCSc1ccc(Nc2nc(N)c(C(=O)c3c(Cl)cccc3Cl)s2)cc1 [DD(30)] | 13 | 32.3 | 3.1 |  |  | 
CC(C)CCOC(=O)CSc1ccc(Nc2nc(N)c(C(=O)c3c(Cl)cccc3Cl)s2)cc1 [DD(31)] | 30 | 59.7 | 15 |  |  | 
CN(C)CCSc1ccc(Nc2nc(N)c(C(=O)c3c(Cl)cccc3Cl)s2)cc1 [DD(32)] | 14 | 61.3 | 5.5 |  |  | 
CCOCCSc1ccc(Nc2nc(N)c(C(=O)c3c(Cl)cccc3Cl)s2)cc1 [DD(33)] | 21 | 64.7 | 8.1 |  |  | 
Nc1nc(Nc2ccc(SCC(O)CO)cc2)sc1C(=O)c1c(Cl)cccc1Cl (stereo not drawn) [DD(34)] | 52 | 89.3 | 32 |  |  | 
Nc1nc(Nc2ccc(SCc3ccncc3)cc2)sc1C(=O)c1c(Cl)cccc1Cl [DD(35)] | 42 | 76.8 | 12 |  |  | 
CCC(CC)CSc1ccc(Nc2nc(N)c(C(=O)c3c(Cl)cccc3Cl)s2)cc1 [DD(36)] | 18 | 49.6 | 9 |  |  | 
CC(=O)OCCSc1ccc(Nc2nc(N)c(C(=O)c3c(Cl)cccc3Cl)s2)cc1 [DD(37)] | 30 | 74.3 | 13 |  |  | 
CC(C)OC(=O)CCSc1ccc(Nc2nc(N)c(C(=O)c3c(Cl)cccc3Cl)s2)cc1 [DD(38)] | 32 | 57.8 | 6.5 |  |  | 
Nc1nc(Nc2ccc(SCCN3CCOCC3)cc2)sc1C(=O)c1c(Cl)cccc1Cl [DD(39)] | 18 | 68.4 | 0.2 |  |  | 
CC(C)(CO)CSc1ccc(Nc2nc(N)c(C(=O)c3c(Cl)cccc3Cl)s2)cc1 [DD(40)] | 23 | 50.3 | -1.2 |  |  | 
CCN(CC)C(=O)CSc1cccc(Nc2nc(N)c(C(=O)c3c(Cl)cccc3Cl)s2)c1 [DD(41)] | 33 | 70.3 | 28 |  |  | 
Cc1noc(C)c1CSc1cccc(Nc2nc(N)c(C(=O)c3c(Cl)cccc3Cl)s2)c1 [DD(42)] | 41 | 63.7 | 29 |  |  | 
CC(CSc1cccc(Nc2nc(N)c(C(=O)c3c(Cl)cccc3Cl)s2)c1)CN(C)C (stereo not drawn) [DD(43)] | 16 | 71.3 | 25 |  |  | 
